# Measured values as given in US4895867A, “2-(5-phenyl-2-furanyl)imidazoles useful as cardiotonic agents” (Norwich Eaton Pharmaceuticals, Inc., priority 1988, dated 1990).
# pEC50: −log10 of the molar value. Counter-ions that a name gives are not always drawn.
# Test system: guinea pig atrial muscle
# Test: In vitro guinea pig atrial muscle contractile force measurement (Test Method I)
# Format: cell-based
# Details: Cavia porcellus; calculated concentration required to increase the contractile force by 50% from the control level; isolated left atria, 30° C., mean of at least three tissues
# Excerpt: Kaplan, "Strategy for the Discovery and Development of a Positive Inotropic Agent", Pharmacology and Therapeutics, Vol. 16 (1982), pp. 303-330. This test measures the effects of such compounds on the contractility of cardiac tissue excised from the atrial muscle of a guinea pig. In vitro guinea pig atrial muscle contractile force measurement Unfasted male Hartley albino guinea pigs, weighing 450-650 g (Charles River Breeding Laboratories, Inc., Wilmington, MA) were used in these studies. They were killed by cranial concussion at the beginning of the experiment. The heart was quickly removed into a Petri dish filled with a solution of the following composition (in water): NaCl 99.0 mM; Dextrose 11.0 mM; […]; MgSO4 1.2 mM; NaH2 PO4 1.3 mM; CaCl2.2H2 O 2.5 mM; NaHCO3 25.01 mM; bubbled with 95% 02 :5% CO2 at room temperature. A triple O silk ligature was tied to the edge of the left atrial appendage, using an intestinal needle. The appendage was cut off; a section was cut away from the wall which faced the heart, retaining a sheet of tissue from the outer face of the atrium. The tissue was mounted from a pair of point stimulating electrode hooks with 1 gram of tension in an organ bath maintained at 30° C. The ligature was tied to a Grass FT-103 force-displacement transducer, and responses were measured in grams of developed tension with a Grass Model 7 polygraph (Grass Instrument Co., Quincy, MA). The left atria were stimulated electrically with the following square wave parameters: 3 v; 4 msec 1 Hz, as soon as they were put into the baths. After a short time (3-5 minutes), voltage was increased until stable responses were obtained (10-25% above threshold). The tissues were allowed to equilibrate under such stimulation for at least 1 hour before experimentation. The test compounds were dissolved in water, if water soluble, or if not, in tetrahydrofurfuryl alcohol (Eastman D5C) or in an organic vehicle containing 90% polyethylene glycol, 6% ethanol, 3% propylene glycol and 1% H2 O). (Test compound solution concentrations were selected to keep injection volumes between 1 and 10 μl). Isoproterenol (0.54 to 5.4 nM) was given at the beginning of each experiment to confirm the viability and responsiveness of the tissues. Test agents were given in several graded doses in logarithmic increments. Responsiveness to isoproterenol was also assessed at the end of the experiment unless other positive drug responses were obtained near the end of the experiment. Results were expressed as percent change from control for contractile force. The EC50 value (calculated concentration required to increase the contractile force by 50% from the control level) for each tissue was obtained, where possible, by regression analysis. The mean of the EC50 values was obtained from at least three individual tissues for each compound tested. Compounds having the following chemical structure were tested for cardiotonic activity according to one or both of the above test methods: [drawing 3] Determinations of contractile force EC50 according to Test Method I and ventricular pressure ED50 according to Test Method II which have been obtained for the compounds are provided in Table I: […]
row,pEC50,Structure (SMILES)
1,5.46,Clc1ccc(-c2ccc(-c3ncc[nH]3)o2)cc1 [Example 2]
2,4.22,O=[N+]([O-])c1ccccc1-c1ccc(-c2ncc[nH]2)o1 [Example 5]
3,5.43,Clc1ccccc1-c1ccc(-c2ncc[nH]2)o1 [Example 9]
4,6.30,"Cc1c[nH]c(-c2ccc(-c3ccc(Br)cc3)o2)n1 [Example 23, 2-[5-(4-Bromophenyl)-2-furanyl]-4-methyl-1H-imidazole Hydrochloride]"
5,4.64,c1ccc(-c2ccc(-c3ncc[nH]3)o2)cc1 [Example 6]
6,5.89,Clc1ccc(-c2ccc(-c3ncc[nH]3)o2)c(Cl)c1 [Example 12]
7,5.52,FC(F)(F)c1ccc(-c2ccc(-c3ncc[nH]3)o2)cc1 [Example 16]
8,< 4.00,Cn1ccnc1-c1ccc(-c2ccc(Br)cc2)o1 [Example 22]
9,5.47,"COc1cc(-c2ccc(-c3ncc[nH]3)o2)ccc1Br [Example 29, 2-[5-(4-Bromo-3-methoxyphenyl)-2-furanyl]-1H-imidazole Hydrochloride]"
10,5.72,"Cc1cc(Br)ccc1-c1ccc(-c2ncc[nH]2)o1 [Example 31, 2-[5-(4-Bromo-2-methylphenyl)-2-furanyl]-1H-imidazole Hydrochloride]"
11,5.40,FC(F)(F)c1cc(-c2ccc(-c3ncc[nH]3)o2)ccc1Br [Example 26]
12,5.09,COc1ccc(-c2ccc(-c3ncc[nH]3)o2)c([N+](=O)[O-])c1 [Example 17]
13,4.48,Fc1ccc(-c2ccc(-c3ncc[nH]3)o2)cc1 [Example 15]
14,5.77,"Cc1c[nH]c(-c2ccc(-c3ccccc3Br)o2)n1 [Example 32, 2-[5-(2-Bromophenyl)-2-furanyl]-4-methyl-1H-imidazole Hydrochloride]"
15,< 4.00,Brc1cccc(Br)c1-c1ccc(-c2ncc[nH]2)o1 [Example 24]
16,4.30,"Cc1cnc(-c2ccc(-c3ccc(Br)cc3)o2)n1C [Example 33, 2-[5-(4-Bromophenyl)-2-furanyl]-1,5-dimethyl-1H-imidazole Hydrochloride]"
17,5.43,"Cc1ccc(-c2ccc(-c3ncc[nH]3)o2)cc1 [Example 19, 2-[5-(4-methylphenyl)-2-furanyl]-1H-imidazole hydrochloride]"

row,pEC50,Structure (SMILES)
1,5.17,"CC(C)c1ccc(-c2ccc(-c3ncc[nH]3)o2)cc1 [Example 20, 2-[5-[4-(1-Methylethyl)phenyl]-2-furanyl]-1H-imidazole Hydrochloride]"
2,4.55,COc1ccc(-c2ccc(-c3ncc[nH]3)o2)cc1 [Example 28]
3,5.10,Brc1ccc(-c2ccc(-c3ncc[nH]3)o2)c(Br)c1 [Example 21]
4,4.99,Ic1ccc(-c2ccc(-c3ncc[nH]3)o2)cc1 [Example 27]
5,4.67,"CCn1ccnc1-c1ccc(-c2ccccc2Br)o1 [Example 30, 2-[5-(2-Bromophenyl)-2-furanyl]-1-ethyl-1H-imidazole Hydrochloride]"
6,< 4.00,"Cc1cn(C)c(-c2ccc(-c3ccc(Br)cc3)o2)n1 [Example 34, 2-[5-(4-Bromophenyl)-2-furanyl]-1,4-dimethyl-1H-imidazole Hydrochloride Hydrate]"
7,5.89,Brc1ccc(-c2ccc(-c3ncc[nH]3)o2)cc1 [Example 14]
8,5.14,Fc1ccccc1-c1ccc(-c2ncc[nH]2)o1 [Example 10]
9,4.40,CC(=O)c1ccc(-c2ccc(-c3ncc[nH]3)o2)cc1 [Example 7]
10,5.24,"Brc1ccccc1-c1ccc(-c2ncc[nH]2)o1 [Example 8, 2-[5-(2-Bromophenyl)-2-furanyl]imidazole Hydrochloride Tetartohydrate]"
11,5.82,Cc1ccc(-c2ccc(-c3ncc[nH]3)o2)c(Br)c1 [Example 25]
12,5.19,FC(F)(F)c1cccc(-c2ccc(-c3ncc[nH]3)o2)c1 [Example 3]
13,4.68,Cn1ccnc1-c1ccc(-c2ccccc2Br)o1 [Example 18]
14,4.55,FC(F)(F)c1ccccc1-c1ccc(-c2ncc[nH]2)o1 [Example 11]
15,5.27,Clc1ccc(-c2ccc(-c3ncc[nH]3)o2)cc1Cl [Example 13]
16,3.59,O=[N+]([O-])c1ccc(-c2ccc(-c3ncc[nH]3)o2)cc1 [Example 1]
17,3.72,COc1ccc(-c2ccc(-c3ncc[nH]3)o2)cc1OC [Example 4]

# Test system: right ventricle of guinea pig
# Test: In vivo guinea pig ventricular pressure measurement (Test Method II)
# Details: Cavia porcellus, iv; calculated dose required to increase the right ventricular pressure by 50% from the control level, anesthetized guinea pig
# Protocol: An additional or alternative method for testing the cardiotonic activity of compounds of the present invention is set forth in the following reference: Beek, O. G., "A Small Animal Model for Monitoring Inotropic Responses to Cardiotonic Agents", Journal of Pharmacological Methods, Vol. 7 (1982), pp. 321-329. Right ventricular inotropic responses are measured in an anesthetized, close-chested guinea pig using a pressure-sensitive transducer inserted into the right ventricle of the heart via the right jugular vein.
# In vivo guinea pig ventricular pressure measurement
# Unfasted male Hartley albino guinea pigs, weighing 450-650 g (Charles River Breeding Laboratories, Inc., Wilmington, MA) were used in these studies. Under ethyl carbamate (urethane) anesthesia (1.25 g/kg i.p.), the trachea was cannulated through a mid-ventral cervical incision. The left carotid artery was cannulated with PE-50 tubing (Clay Adams Co., Parsippany, NJ) filled with 100 µg/ml heparin for blood pressure monitoring, and the left jugular vein was cannulated (catheter filled with saline) for drug administration. A 3Fr Millar Mikro-Tip ventricular pressure catheter (Millar instruments, Inc., Houston, Texas) was positioned in the right ventricle via the right jugular vein. A thoracotomy was performed and the guinea pig was respired by a rodent respirator (Model 680, Harvard Apparatus Co., Millis, MA) at a rate of 8 ml/stroke×40 strokes/minute. A modified Brodie strain gauge (Warren Research Products, Charleston, South Carolina) was sutured on the right ventricle parallel to, but avoiding, the intraventricular septum. The rectal body temperature of 37° C. was maintained by an electronic temperature controlled lamp. The animals were left undisturbed for 60 minutes before being used for an experiment.
# A single i.v. bolus does of 0.3 μg/kg isoproterenol was administered followed by a 0.2 ml saline flush prior to and at the end of each experiment to check the viability and responsiveness of each animal. Usually a vehicle does in a volume equal to the single largest volume of compound to be administered was intravenously injected 20-30 minutes after the initial isoproterenol injection when parameters had returned to baseline levels. A non-cumulative dose response curve was determined for each compound using a minimum of 3 doses. Time between doses for all compounds was dependent upon the time needed for all parameters to return to baseline or stable levels. A minimum of 3 animals per dose level was tested for each compound.
# Results were expressed as percent changes from pretreatment baseline for all parameters measured. The ED50 values of ventricular pressure changes (calculated dose required to increase the right ventricular pressure by 50% from the control level) of test compounds were determined by regression analysis.
# Compounds having the following chemical structure were tested for cardiotonic activity according to one or both of the above test methods: [drawing 3] Determinations of contractile force EC50 according to Test Method I and ventricular pressure ED50 according to Test Method II which have been obtained for the compounds are provided in Table I: […]
row,Structure (SMILES),ED50
1,Clc1ccc(-c2ccc(-c3ncc[nH]3)o2)cc1 [Example 2],0.31 mg/kg
2,O=[N+]([O-])c1ccccc1-c1ccc(-c2ncc[nH]2)o1 [Example 5],29.1 mg/kg
3,c1ccc(-c2ccc(-c3ncc[nH]3)o2)cc1 [Example 6],1.98 mg/kg
4,Clc1ccc(-c2ccc(-c3ncc[nH]3)o2)c(Cl)c1 [Example 12],2.05 mg/kg
5,"Brc1ccccc1-c1ccc(-c2ncc[nH]2)o1 [Example 8, 2-[5-(2-Bromophenyl)-2-furanyl]imidazole Hydrochloride Tetartohydrate]",0.8 mg/kg
6,COc1ccc(-c2ccc(-c3ncc[nH]3)o2)cc1OC [Example 4],3.16 mg/kg
